This note sets out measurements from patent US20240390468A1, “SURVIVIN AND MAGE-A9 DUAL-TARGETED IMMUNOTHERAPY” (IMMUNOVACCINE TECHNOLOGIES INC., priority 2022, published 2024).

“Also recorded” adds a separate entry of the source.

One experiment has as its system spleen cells. As to the kind of experiment: Spleen cell studies (omission of peptide 223). In kind it is cell-based.
Experiment [1] addresses MHC class 1 allele A*02:01 (Homo sapiens, UniProt P04439, D140Y/D185E/D98H/E176V/E277Q/G131W/G231S/I119V/I121R/I166T/I218V/L300P/L318F/N151K/N90K/P208A/P217A/Q86G/Q94H/R138H/R169H/T345S). Nature of the experiment: REVEAL binding of HLA-A2 binding peptides. To be noted: Higher REVEAL score.
Experiment [2] concerns peptide-loaded RMA-S HHD cells. As to the kind of experiment: Chromium 51 release assay (CTL assay). In kind it is cell-based, mice. The following applies: effector:target 75:1, 50:1, 25:1; mice immunized with recombinant MAGE-A9 and poly(I:C).
In experiment [3] the test system is spleen cells of HLA-B7 transgenic mice immunized with MAGE-A9 full length recombinant protein. Nature of the experiment: IFN-γ ELISPOT, MAGE-A9 immunogenic HLA-B7 peptides. Format: cell-based. The following applies: individual responses per mouse. How it is done:
FIGS. 19A and 19B depict IFN-γ ELISPOT results of 1st experiment for the MAGE-A9 immunogenic HLA-B7 peptides. IFN-γ response induced by HLA-B7 candidate peptides of MAGE-A9 as detected by IFN-γ ELISPOT assay. Two group of 3 and 5 mice were immunized respectively with poly(I:C) alone (as control; bar on the left) and with MAGE-A9 full-length recombinant protein admixed with poly(I:C) (bar on the right). Mice were sacrificed 34 days after 1st immunization and spleen cells were tested in IFN-γ ELISPOT after stimulation with dendritic cells loaded with the individual candidate or control peptides (FIG. 19A) or after direct stimulation with the individual candidate or control peptides (FIG. 19B). DCE: Dendritic cell empty; NS: Non stimulated; B7-Ctrl; irrelevant control HLA-B7 peptide. Student T-test *p<0.05; ** p<0.005; *** p<0.0005; **** p<0.00005. […]
Groups of ten 6-12 weeks-old HLA-A1, HLA-A2/DR1, HLA-A24, HLA-All (as a surrogate for HLA-A3 allele) and HLA-B7 male/female mice were immunized three times s.c. and i.p., 14 days apart, with 30 μg of MAGE-A9 his-tag full-length recombinant protein admixed with 50 μg (s.c.) or 200 μg (i.p.) of Poly(I:C) in a final volume of 100 μl. […] The immune response was measured using IFN-γ ELISPOT assays (BD). Then spots were counted using an ELISPOT counter (CTL Analyzer) and enumerated as number of spot-forming units (SFU) per well. […]

As for “ALSVMGVYV [MAGE-A9 223, MAGE-A9 peptide antigen]”, the “impact of omission on immunogenic potential of a final formulation” value in the experiment on spleen cells is recorded as “does not significantly impact”. Further, the “binding to MHC class 1 allele A*02:01 (in words)” value in experiment [1] is listed as “high binding”. Besides, in experiment [2], the “CTL response (51Cr-release)” value is given as “elicited a response”.

For MPKAALLII [peptide 195], the “IFN-γ response (ELISPOT)” value in experiment [3] is recorded as “greatest activity; also recorded: gave an immune response”.
